Key:
Experiment in all cases: TPP-CCR in living HL-60 cells
Format in all cases: cell-based
CANX = biological target: T1, CANX (Homo sapiens, UniProt P27824)
T1 construct: endogenous in cells; host or cells: HL-60 (ATCC CCL-240)
T1 sequence (P27824 21-592): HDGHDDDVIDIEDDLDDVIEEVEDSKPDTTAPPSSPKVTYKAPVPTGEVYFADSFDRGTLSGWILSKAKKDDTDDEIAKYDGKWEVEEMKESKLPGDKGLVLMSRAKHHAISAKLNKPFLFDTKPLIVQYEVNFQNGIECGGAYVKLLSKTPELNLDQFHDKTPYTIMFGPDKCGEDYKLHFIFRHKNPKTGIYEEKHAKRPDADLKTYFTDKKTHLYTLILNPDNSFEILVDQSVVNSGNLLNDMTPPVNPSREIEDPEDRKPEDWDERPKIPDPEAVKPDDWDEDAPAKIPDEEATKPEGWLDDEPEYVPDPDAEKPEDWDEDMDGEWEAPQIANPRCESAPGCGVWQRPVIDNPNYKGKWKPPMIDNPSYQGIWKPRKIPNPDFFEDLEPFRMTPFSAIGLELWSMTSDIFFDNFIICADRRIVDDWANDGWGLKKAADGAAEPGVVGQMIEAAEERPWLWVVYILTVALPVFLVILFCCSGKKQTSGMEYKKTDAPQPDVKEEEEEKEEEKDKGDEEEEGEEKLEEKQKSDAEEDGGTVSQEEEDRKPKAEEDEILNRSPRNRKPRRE

ANP32E = biological target: T2, ANP32E (Homo sapiens, UniProt Q9BTT0)
T2 construct: dose–responses (mean over replicates), derived from TPP-CCR experiments in living cells; endogenous in cells; host or cells: HL-60 cells (ATCC No. CCL-240)

PDIA6 = biological target: T3, PDIA6 (Homo sapiens, UniProt Q15084)
T3 construct: endogenous in cells; host or cells: HL-60 (ATCC CCL-240)
T3 sequence (Q15084 20-440): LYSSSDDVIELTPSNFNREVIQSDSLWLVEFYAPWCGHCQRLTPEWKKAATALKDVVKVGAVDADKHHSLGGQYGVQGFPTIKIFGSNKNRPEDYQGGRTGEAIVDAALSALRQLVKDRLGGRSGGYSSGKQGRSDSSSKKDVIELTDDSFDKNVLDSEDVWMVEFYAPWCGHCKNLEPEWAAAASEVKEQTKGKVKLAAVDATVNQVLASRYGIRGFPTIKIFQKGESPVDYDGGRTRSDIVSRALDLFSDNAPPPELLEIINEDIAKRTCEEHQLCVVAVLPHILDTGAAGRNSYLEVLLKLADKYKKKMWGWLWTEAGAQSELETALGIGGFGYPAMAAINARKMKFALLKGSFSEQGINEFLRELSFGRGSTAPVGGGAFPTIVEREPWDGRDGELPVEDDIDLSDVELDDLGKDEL

[1] = living HL-60 cells, […] °C, TMT-MS

T2 sequence (Q9BTT0 whole entry): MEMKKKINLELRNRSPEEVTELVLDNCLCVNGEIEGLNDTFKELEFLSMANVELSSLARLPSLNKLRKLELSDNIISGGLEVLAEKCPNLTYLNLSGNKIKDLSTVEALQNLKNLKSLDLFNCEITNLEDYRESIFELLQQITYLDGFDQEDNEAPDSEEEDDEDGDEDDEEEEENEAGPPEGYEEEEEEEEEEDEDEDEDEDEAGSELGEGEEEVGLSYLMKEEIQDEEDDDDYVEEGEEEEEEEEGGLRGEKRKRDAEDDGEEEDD

Cc1cnc(Nc2ccc(F)cc2Cl)nc1-c1c[nH]c(C(=O)N[C@H](CO)c2cccc(Cl)c2)c1 [ERK 11e]
Hill slope (CANX; TPP-CCR, living cells, CANX): 0.80
EC50 (CANX; [1]): 871 nM
Hill slope (CANX) (CANX; [1]): 0.80
Hill slope (ANP32E; TPP-CCR, living cells, ANP32E): 0.58
Hill slope (ANP32E) (ANP32E; [1]): 0.58
EC50 (ANP32E; living HL-60 cells, […] °C, TMT-MS, read-out: pEC50 (ANP32E) (converted)): 166 nM
Hill slope (PDIA6; TPP-CCR, living cells, PDIA6): 1.33
Hill slope (PDIA6) (PDIA6; [1]): 1.33
EC50 (PDIA6; living HL-60 cells, […] °C, TMT-MS, read-out: pEC50 (PDIA6) (converted)): 3.55 µM
